Reference: patent US9938262B2, “Benzamides” (Merck Patent GmbH, priority 2011, dated 2018)

Target: T1, FSHR (Homo sapiens, UniProt P23945)
T1 construct: expressed in transfected cells; host or cells: CHO (Cho-FSHR-LUC-1-1-43)
Test: EC50 of cyclic AMP production in CHO FSHR cells + EC20 FSH (Assay A)
Assay type: cell-based
Details: Table 1; for EC50: CHO FSHR cells + EC20 FSH, read-out: Assay A EC50 of cyclic AMP production; for activation at 5 µM: 1 h, effect relative to maximum response of the FSH standard
Procedure: Example 10: EC50 of Cyclic AMP Production in CHO FSHR Cells+EC20 FSH (Assay A)
2500 Cho-FSHR-LUC-1-1-43 cells were plated per well in 5 μl of phenol red free DMEM/F12+1% FBS. Cells were plated in 384 well, solid white low volume plates (Greiner 784075) by Multidrop. Cells were assayed by adding 100 μl of 2×EC20 FSH/IBMX in DMEM/F12+0.1% BSA) by Multidrop to 2 μl of test compound stamped in 384 well plates (compounds are diluted 1:50). The final FSH concentration was […], and the final IBMX concentration was 200 μM. The compound plate map was as follows: Column 1: 2 μl of DMSO; Column 2: 2 μl of DMSO; Columns 3-12 and 13-24: 2 μl of test compound, diluted 1:4 in 100% DMSO, or 2 μl of FSH, diluted 1:4 in DMEM/F12+0.1% BSA. The starting concentration for FSH was 50 nM (final concentration was 0.5 nM). […] 5 μl of compound+EC20 FSH mixture were transferred to cell plates (1:2 dilution into 5 μl of cell media) The plates were incubated at 37° C. for 1 h. 10 μl of mixed HTRF (CisBio #62AM4PEC) reagents were added per well and incubated at room temperature for 1 h. The plates were read on Envision using the cAMP HTRF—low volume 384 well protocol. The readout was the calculated fluorescence ratio (665 nm/620 nm). Values given in percent (%) indicate the percental effect (response) at a certain concentration of agonist relative to the maximum response of the FSH standard.

T1 sequence (P23945 18-695): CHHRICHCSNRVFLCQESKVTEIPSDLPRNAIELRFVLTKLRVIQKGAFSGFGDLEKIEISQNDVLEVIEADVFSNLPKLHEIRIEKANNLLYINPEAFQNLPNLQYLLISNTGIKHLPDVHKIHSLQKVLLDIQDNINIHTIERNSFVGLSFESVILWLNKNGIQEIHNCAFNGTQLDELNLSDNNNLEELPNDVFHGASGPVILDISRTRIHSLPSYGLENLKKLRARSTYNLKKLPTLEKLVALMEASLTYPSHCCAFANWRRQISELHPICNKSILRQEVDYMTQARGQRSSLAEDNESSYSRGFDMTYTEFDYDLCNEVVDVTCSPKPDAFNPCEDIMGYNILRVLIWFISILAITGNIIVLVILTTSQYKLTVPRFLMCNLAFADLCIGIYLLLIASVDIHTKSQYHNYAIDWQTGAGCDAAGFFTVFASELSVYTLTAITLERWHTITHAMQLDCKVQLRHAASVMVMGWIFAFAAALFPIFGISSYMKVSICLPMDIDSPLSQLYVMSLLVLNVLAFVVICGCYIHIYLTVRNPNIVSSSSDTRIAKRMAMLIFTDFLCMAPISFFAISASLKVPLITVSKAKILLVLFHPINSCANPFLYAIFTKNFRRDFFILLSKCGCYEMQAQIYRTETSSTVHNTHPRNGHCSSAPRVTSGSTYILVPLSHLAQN
T1 sequence (P01215 25-116 partner): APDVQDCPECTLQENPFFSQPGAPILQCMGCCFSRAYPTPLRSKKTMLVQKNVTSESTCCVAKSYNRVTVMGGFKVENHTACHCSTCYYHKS
T1 sequence (P01225 19-129 partner): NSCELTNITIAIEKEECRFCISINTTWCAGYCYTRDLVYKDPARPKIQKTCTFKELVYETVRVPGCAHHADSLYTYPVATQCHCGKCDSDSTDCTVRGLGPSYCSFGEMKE

EC50	activation at 5 µM	Structure (SMILES)
100 to 1000 nM		CCC(C)(C)C(=O)N(C)CCNC(=O)c1ccc(N2CCN(c3ccccc3C)CC2)c(NC(=O)c2ccco2)c1 [Compound 133, Furan-2-carboxylic acid [5-{2-[(2,2-dimethyl-butyryl)-methyl-amino]-ethylcarbamoyl}-2-(4-o-tolyl-piperazin-1-yl)-phenyl]-amide]
1000 to 10000 nM		Cc1ccccc1N1CCN(c2ccc(C(=O)NCCN(C)C(=O)c3ccc4c(c3)OCO4)cc2NC(=O)c2ccco2)CC1 [Compound 134, Benzo[1,3]dioxole-5-carboxylic acid {2-[3-[(furan-2-carbonyl)-amino]-4-(4-o-tolyl-piperazin-1-yl)-benzoylamino]-ethyl}-methyl-amide]
	41%	Cc1ccccc1N1CCN(c2ccc(C(=O)NCCCN3CCCC3=O)cc2NC(=O)c2cc(C)c(C)o2)CC1 [Compound 138]
100 to 1000 nM		CCc1ccc(C(=O)Nc2cc(C(=O)NCCCN3CCCC3=O)ccc2N2CCN(c3ccccc3C)CC2)o1 [Compound 140]
100 to 1000 nM		COc1ccc(C(=O)Nc2cc(C(=O)NCCCN3CCCC3=O)ccc2N2CCN(c3ccccc3C)CC2)o1 [Compound 141]
1000 to 10000 nM		Cc1ccc(C(=O)Nc2cc(C(=O)N[C@@H]3CCN(C(=O)OC(C)(C)C)C3)ccc2N2CCN(c3ccccc3C)CC2)o1 [Compound 142, (R)-3-[3-[(5-Methyl-furan-2-carbonyl)-amino]-4-(4-o-tolyl-piperazin-1-yl)-benzoylamino]-pyrrolidine-1-carboxylic acid tert-butyl ester]
	16%	Cc1ccccc1N1CCN(c2ccc(C(=O)NCCCN3CCCC3=O)cc2NC(=O)c2cnoc2C(C)C)CC1 [Compound 145]
> 10000 nM		Cc1ccccc1N1CCN(c2ccc(C(=O)NCCCN3CCCC3=O)cc2NC(=O)c2cccc(O)c2)CC1 [Compound 146]
100 to 1000 nM		Cc1ccccc1N1CCN(c2ccc(C(=O)NCCCn3cccc3)cc2NC(=O)c2ccco2)CC1 [Compound 148]
	24%	Cc1ccccc1N1CCN(c2ccc(C(=O)NCCCn3ccc4ccccc43)cc2NC(=O)c2ccco2)CC1 [Compound 149]
100 to 1000 nM		Cc1ccccc1N1CCN(c2ccc(C(=O)NCC(=O)NC3CCCC3)cc2NC(=O)c2ccco2)CC1 [Compound 151]
100 to 1000 nM		Cc1ccccc1N1CCN(c2ccc(C(=O)NCCCc3ccncc3)cc2NC(=O)c2ccco2)CC1 [Compound 153]
1000 to 10000 nM		Cc1ccccc1N1CCN(c2ccc(C(=O)NCC3(CN4CCCC4)CC3)cc2NC(=O)c2ccco2)CC1 [Compound 154]
100 to 1000 nM		Cc1ccccc1N1CCN(c2ccc(C(=O)NCCCN3C(=O)CN(C)C3=O)cc2NC(=O)c2ccco2)CC1 [Compound 156]
100 to 1000 nM		Cc1ccccc1N1CCN(c2ccc(C(=O)NCCC3C[C@H]4CC[C@@H]3C4)cc2NC(=O)c2ccco2)CC1 (some centres unmarked) [Compound 157]
1000 to 10000 nM		Cc1ccccc1N1CCN(c2ccc(C(=O)NCCCN3CCCC3=O)cc2NC(=O)c2ncccc2F)CC1 [Compound 160]
100 to 1000 nM		Cc1ccccc1N1CCN(c2ccc(C(=O)NCCCN3CCCC3=O)cc2NC(=O)c2ccc(F)cc2F)CC1 [Compound 161]
100 to 1000 nM		Cc1ccc(C(=O)Nc2cc(C(=O)NCCCN3CCCC3=O)ccc2N2CCN(c3ccccc3C)CC2)s1 [Compound 162]
	8%	Cc1ccccc1N1CCN(c2ccc(C(=O)NCCCN3CCCC3=O)cc2NC(=O)c2cccc(C(N)=O)c2)CC1 [Compound 163]
1000 to 10000 nM		CC(=O)Nc1ccc(C(=O)Nc2cc(C(=O)NCCCN3CCCC3=O)ccc2N2CCN(c3ccccc3C)CC2)o1 [Compound 164]
> 10000 nM		Cc1ccc(C(=O)Nc2cc(C(=O)NCCCN3CCCC3=O)ccc2N2CCC(c3ccccc3C)CC2)o1 [Compound 165, 5-Methyl-furan-2-carboxylic acid [5-[3-(2-oxo-pyrrolidin-1-yl)-propylcarbamoyl]-2-(4-o-tolyl-piperidin-1-yl)-phenyl]-amide]

EC50	activation at 5 µM	Structure (SMILES)
	20%	COc1ccccc1N1CCN(c2ccc(C(=O)NCCCN3CCCC3=O)cc2NC(=O)c2ccco2)CC1 [Compound 166]
1000 to 10000 nM		Cc1ccc(C(=O)Nc2cc(C(=O)NCCCN3CCCC3=O)ccc2N2CCN(c3ccccc3)CC2)o1 [Compound 167, 5-Methyl-furan-2-carboxylic acid [5-[3-(2-oxo-pyrrolidin-1-yl)-propylcarbamoyl]-2-(4-phenyl-piperazin-1-yl)-phenyl]-amide]
	32%	Cc1ccc(C(=O)Nc2cc(C(=O)NCc3cccc(Br)c3)ccc2N2CCN(c3ccccc3C)CC2)o1 [Compound 170]
1000 to 10000 nM		COc1ccc(CNC(=O)c2ccc(N3CCN(c4ccccc4C)CC3)c(NC(=O)c3ccc(C)o3)c2)cc1OC [Compound 171, 5-Methyl-furan-2-carboxylic acid [5-(3,4-dimethoxy-benzylcarbamoyl)-2-(4-o-tolyl-piperazin-1-yl)-phenyl]-amide]
1000 to 10000 nM		COc1ccc(-c2c[nH]nc2CNC(=O)c2ccc(N3CCN(c4ccccc4C)CC3)c(NC(=O)c3ccc(C)o3)c2)cc1 [Compound 172, 5-Methyl-furan-2-carboxylic acid [5-{[4-(4-methoxy-phenyl)-1H-pyrazol-3-ylmethyl]-carbamoyl}-2-(4-o-tolyl-piperazin-1-yl)-phenyl]-amide]
1000 to 10000 nM		COc1ccccc1N1CCN(c2ccc(C(=O)NCCCN3CCCC3=O)cc2NC(=O)c2ccc(C)o2)CC1 [Compound 173, 5-Methyl-furan-2-carboxylic acid {2-[4-(2-methoxy-phenyl)-piperazin-1-yl]-5-[3-(2-oxo-pyrrolidin-1-yl)-propylcarbamoyl]-phenyl}-amide]
1000 to 10000 nM		Cc1ccc(C(=O)Nc2cc(C(=O)NCCN3CCS(=O)(=O)CC3)ccc2N2CCN(c3ccccc3C)CC2)o1 [Compound 174, 5-Methyl-furan-2-carboxylic acid [5-[2-(1,1-dioxo-1 lambda*6*-thiomorpholin-4-yl)ethylcarbamoyl]-2-(4-o-tolyl-piperazin-1-yl)-phenyl]-amide]
1000 to 10000 nM		Cc1ccc(C(=O)Nc2cc(C(=O)NC3CCN(C(=O)OC(C)(C)C)CC3)ccc2N2CCN(c3ccccc3C)CC2)o1 [Compound 175, 4-[3-[(5-methyl-furan-2-carbonyl)-amino]-4-(4-o-tolyl-piperazin-1-yl)-benzoylamino]-piperidine-1-carboxylic acid tert-butyl ester]
1000 to 10000 nM		Cc1ccccc1N1CCN(c2ccc(C(=O)NCCCN3CCCC3=O)cc2NC(=O)C(C)(C)C)CC1 [Compound 177, 3-(2,2-Dimethyl-propionylamino)-N-[3-(2-oxo-pyrrolidin-1-yl)-propyl]-4-(4-o-tolyl-piperazin-1-yl)-benzamide]
1000 to 10000 nM		Cc1ccccc1N1CCN(c2ccc(C(=O)NCCCN3CCCC3=O)cc2NC(=O)c2nc(Br)cs2)CC1 [Compound 178]
100 to 1000 nM		Cc1ccccc1N1CCN(c2ccc(C(=O)NCCCN3CCCC3=O)cc2NC(=O)c2ncsc2C)CC1 [Compound 179]
1000 to 10000 nM		Cc1ccccc1N1CCN(c2ccc(C(=O)NCCC(C)N3CCCC3)cc2NC(=O)c2ccco2)CC1 (centres unmarked) [Compound 181]
1000 to 10000 nM		Cc1ccc(C(=O)Nc2cc(C(=O)NCCc3c[nH]cn3)ccc2N2CCN(c3ccccc3C)CC2)o1 [Compound 185, 5-Methyl-furan-2-carboxylic acid [5-[2-(1H-imidazol-4-yl)-ethylcarbamoyl]-2-(4-o-tolyl-piperazin-1-yl)-phenyl]-amide]
1000 to 10000 nM		Cc1cccc(C(=O)Nc2cc(C(=O)NCCCN3CCCC3=O)ccc2N2CCN(c3ccccc3C)CC2)n1 [Compound 186, 6-Methyl-pyridine-2-carboxylic acid [5-[3-(2-oxo-pyrrolidin-1-yl)-propylcarbamoyl]-2-(4-o-tolyl-piperazin-1-yl)-phenyl]-amide]
100 to 1000 nM		Cc1ccccc1N1CCN(c2ccc(C(=O)N[C@H]3O[C@@H](CO)[C@@H]4OC(C)(C)O[C@@H]43)cc2NC(=O)c2ccco2)CC1 [Compound 191]
100 to 1000 nM		Cc1ccccc1N1CCN(c2ccc(C(=O)NCCCN)cc2NC(=O)c2ccco2)CC1 [Compound 192]
1000 to 10000 nM		Cc1ccc(C(=O)Nc2cc(C(=O)NCCCN3CCCC3=O)ccc2N2CCCN(c3ccccc3C)CC2)o1 [Compound 194, 5-Methyl-furan-2-carboxylic acid [5-[3-(2-oxo-pyrrolidin-1-yl)-propylcarbamoyl]-2-(4-o-tolyl-[1,4]diazepan-1-yl)-phenyl]-amide]
1000 to 10000 nM		Cc1ccc(C(=O)Nc2cc(C(=O)NC3CC3)ccc2N2CCN(c3ccccc3C)CC2)o1 [Compound 195, 5-Methyl-furan-2-carboxylic acid [5-cyclopropylcarbamoyl-2-(4-o-tolyl-piperazin-1-yl)-phenyl]amide]
	22%	Cc1ccc(C(=O)Nc2cc(C(=O)NCCCCCCNC(=O)OC(C)(C)C)ccc2N2CCN(c3ccccc3C)CC2)o1 [Compound 196]
1000 to 10000 nM		Cc1ccccc1N1CCN(c2ccc(C(=O)NCCCN3CCCC3=O)cc2NC(=O)c2cnc(Cl)s2)CC1 [Compound 197]
